# Results reported in patent US20050282811A1, “Diazabicyclic histamine-3 receptor antagonists” (Pfizer Inc, priority 2004, published 2005).
# Target: T1, rat histamine H3 receptors (Rattus norvegicus, UniProt Q9QYN8)
# T1 construct: Frozen rat frontal brain or frozen human post-mortem frontal brain is homogenized; from tissue; host or cells: rat frontal brain membranes
# Assay: Rat H3 Binding (3H-N-methylhistamine displacement, frontal brain membranes)
# Settings: frozen rat frontal brain membranes; radioligand 1 nM 3H-N-methylhistamine; 1 hour incubation
# Method: The in vitro affinity of the compounds in the present invention at the rat or human histamine H3 receptors can be determined according to the following procedure. Frozen rat frontal brain or frozen human post-mortem frontal brain is homogenized in 20 volumes of cold 50 mM Tris HCl containing 2 mM MgCl2 (pH to 7.4 at 4 degrees C.). The homogenate is then centrifuged at 45,000 G for 10 minutes. The supernatant is decanted and the membrane pellet re-suspended by Polytron in cold 50 mM Tris HCl containing 2 mM MgCl2 (pH to 7.4 at 4 degrees C.) and centrifuged again. The final pellet is re-suspended in 50 mM Tris HCl containing 2 mM MgCl2 (pH to 7.4 at 25 degrees C.) at a concentration of 12 mg/mL. Dilutions of compounds are made in 10% DMSO/50 mM Tris buffer (pH 7.4) (at 10×final concentration, so that the final DMSO concentration is 1%). Incubations are initiated by the addition of membranes (200 microliters) to 96 well V-bottom polypropylene plates containing 25 microliters of drug dilutions and 25 microliters of radioligand (1 nM final concentration ^3H-N-methylhistamine). After a 1 hour incubation, assay samples are rapidly filtered through Whatman GF/B filters and rinsed with ice-cold 50 mM Tris buffer (pH 7.4) using a Skatron cell harvester. Radioactivity is quantified using a BetaPlate scintillation counter.
# T1 sequence (Q9QYN8 whole entry): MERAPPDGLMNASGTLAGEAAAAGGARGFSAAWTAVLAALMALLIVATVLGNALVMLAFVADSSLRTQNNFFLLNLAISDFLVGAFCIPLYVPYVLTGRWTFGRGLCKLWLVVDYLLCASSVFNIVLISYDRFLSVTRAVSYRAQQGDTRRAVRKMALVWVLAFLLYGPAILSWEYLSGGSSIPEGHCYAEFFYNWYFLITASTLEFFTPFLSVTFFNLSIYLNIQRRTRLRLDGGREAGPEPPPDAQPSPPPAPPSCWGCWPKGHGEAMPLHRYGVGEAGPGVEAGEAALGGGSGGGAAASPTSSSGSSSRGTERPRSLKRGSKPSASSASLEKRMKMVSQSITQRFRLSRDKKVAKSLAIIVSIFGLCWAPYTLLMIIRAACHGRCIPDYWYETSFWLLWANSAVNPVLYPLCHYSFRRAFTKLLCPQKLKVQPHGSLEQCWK
row,SMILES,Ki
1,"CS(=O)(=O)c1ccc(CN2CCN3C[C@H](COCCCN4CCCCC4)CC[C@H]3C2)cc1 [Example 1, trans-(7R, 9aS)-2-(4-Methanesulfonylbenzyl)-7-(3-piperidin-1-ylpropoxymethyl)-octa-hydro-pyrido[1,2-a]pyrazine]",42 nM
2,"c1cc(CN2CCN3C[C@H](COCCCN4CCCCC4)CC[C@H]3C2)ccn1 (stereo in doubt) [Example 13, trans-7-(3-Piperidin-1-yl-propoxymethyl)-2-pyridin-4-ylmethyl-octahydro-pyrido[1,2-a]pyrazine]",33 nM
3,"Clc1cccc(CN2CCN3C[C@H](COCCCN4CCCCC4)CC[C@H]3C2)c1 (stereo in doubt) [Example 11, trans-2-(3-Chlorobenzyl)-7-(3-piperidin-1-ylpropoxymethyl)-octahydro-pyrido[1,2-a]pyrazine]",33 nM
4,"c1ccc(CN2CCN3C[C@H](COCCCN4CCCCC4)CC[C@H]3C2)nc1 (stereo in doubt) [Example 15, trans-7-(3-Piperidin-1-yl-propoxymethyl)-2-pyridin-2-ylmethyl-octahydro-pyrido[1,2-a]pyrazine]",90 nM
5,COc1ccc(CN2CCN3C[C@H](COCCCN4CCCCC4)CC[C@H]3C2)cc1 (relative stereo) [Example 6],55 nM
6,"CC(=O)Nc1ccc(CN2CCN3C[C@H](COCCCN4CCCCC4)CC[C@H]3C2)cc1 (stereo in doubt) [Example 12, trans-N-{4-[7-(3-Piperidin-1-ylpropoxymethyl)-octahydro-pyrido[1,2-a]pyrazin-2-ylmethyl]-phenyl}-acetamide]",70 nM
7,"CC(=O)c1ccc(CN2CCN3C[C@@H](COCCCN4CCCCC4)CC[C@H]3C2)cc1 (stereo in doubt) [Example 17, cis-1-{4-[7-(3-Piperidin-1-ylpropoxymethyl)-octahydro-pyrido[1,2-a]pyrazin-2-ylmethyl]-phenyl}-ethanone]",60 nM
8,"Clc1ccc(CN2CCN3C[C@@H](COCCCN4CCCCC4)CC[C@H]3C2)cc1 (stereo in doubt) [Example 18, cis-2-(4-Chlorobenzyl)-7-(3-piperidin-1-ylpropoxymethyl)-octahydro-pyrido[1,2-a]pyrazine]",> 69 nM
9,"CN1CCN2C[C@H](COCCCN3CCCCC3)CC[C@H]2C1 (stereo in doubt) [Example 16, trans-2-Methyl-7-(3-piperidin-1-ylpropoxymethyl)-octahydro-pyrido[1,2-a]pyrazine]",114 nM
10,"c1ccc(CCN2CCN3C[C@H](COCCCN4CCCCC4)CC[C@H]3C2)cc1 (stereo in doubt) [Example 3, trans-2-Phenethyl-7-(3-piperidin-1-ylpropoxymethyl)-octahydro-pyrido[1,2-a]pyrazine]",54 nM
11,"c1ccc(CCCN2CCN3C[C@H](COCCCN4CCCCC4)CC[C@H]3C2)cc1 (stereo in doubt) [Example 4, trans-2-(3-Phenylpropyl)-7-(3-piperidin-1-ylpropoxymethyl)-octahydro-pyrido[1,2-a]pyrazine]",37 nM
12,"Fc1cccc(CN2CCN3C[C@H](COCCCN4CCCCC4)CC[C@H]3C2)c1 (stereo in doubt) [Example 9, trans-2-(3-Fluorobenzyl)-7-(3-piperidin-1-ylpropoxymethyl)-octahydro-pyrido[1,2-a]pyrazine]",9 nM
13,"CC(=O)c1ccc(CN2CCN3C[C@H](COCCCN4CCCCC4)CC[C@H]3C2)cc1 (stereo in doubt) [Example 5, trans-1-{4-[7-(3-Piperidin-1-ylpropoxymethyl)-octahydro-pyrido[1,2-a]pyrazin-2-ylmethyl]-phenyl}-ethanone]",35 nM
14,"Clc1ccc(CN2CCN3C[C@H](COCCCN4CCCCC4)CC[C@H]3C2)cc1 (stereo in doubt) [Example 10, trans-2-(4-Chlorobenzyl)-7-(3-piperidin-1-ylpropoxymethyl)-octahydro-pyrido[1,2-a]pyrazine]",14 nM
15,"C1CCN(CCCOC[C@@H]2CC[C@H]3CNCCN3C2)CC1 (stereo in doubt) [Intermediate 3, trans-7-(3-Piperidin-1-ylpropoxymethyl)-octahydro-pyrido[1,2-a]pyrazine]",155 nM
16,"CS(=O)(=O)c1ccc(CN2CCN3C[C@@H](COCCCN4CCCCC4)CC[C@H]3C2)cc1 (stereo in doubt) [Example 21, cis-2-(4-Methanesulfonylbenzyl)-7-(3-piperidin-1-ylpropoxymethyl)-octahydro-pyrido[1,2-a]pyrazine]",26 nM
17,"c1ccc(CN2CCN3C[C@H](COCCCN4CCCCC4)CC[C@H]3C2)cc1 (stereo in doubt) [Example 2, trans-2-Benzyl-7-(3-piperidin-1-ylpropoxymethyl)-octahydro-pyrido[1,2-a]pyrazine]",125 nM
18,"COc1cccc(CN2CCN3C[C@H](COCCCN4CCCCC4)CC[C@H]3C2)c1 (stereo in doubt) [Example 7, trans-2-(3-Methoxybenzyl)-7-(3-piperidin-1-ylpropoxymethyl)-octahydro-pyrido[1,2-a]pyrazine]",28 nM
19,"Fc1ccc(CN2CCN3C[C@H](COCCCN4CCCCC4)CC[C@H]3C2)cc1 (stereo in doubt) [Example 8, trans-2-(4-Fluorobenzyl)-7-(3-piperidin-1-ylpropoxymethyl)-octahydro-pyrido[1,2-a]pyrazine]",26 nM
